Assays:
[1] = system: MAT2A mRNA splicing in MDA-MB-231 cells; assay: MAT2A splicing by RT-qPCR, MDA-MB-231; type: cell-based, human; settings: 50 μM, 24 h, 45 potassium salt used
Procedure: MDA-MB-231 cells and A549 cells were seeded into 6-well plates at 70% confluency and cultured overnight. Afterward they were treated with compound 45 potassium salt for 24 h. After the compound treatment, the cell culture medium was discarded and cells were washed with DPBS three times. The total RNA was then purified using RNeasy Mini Kit (Qiagen 74106) following the manufacturer’s protocol.
The reverse transcription was performed by using High-Capacity cDNA Reverse Transcription Kits (Thermo Fisher 4368814) with 500 ng of total RNA. qPCR was performed using PowerUp SYBR Green Master Mix (Thermo Fisher, A25742) with a 10 μL volume. The cycling was performed using Bio-Rad CFX96 Real-Time PCR Detection System following the standard cycling mode (primer Tm ≥ 60 °C) on the manufacturer’s protocol. The p value was calculated using GraphPad Prism software’s one-way ANOVA analysis.

[2] = molecular target: T1, METTL16 MTD (1-291) (Homo sapiens, UniProt Q86W50); assay: Isothermal titration calorimetry (ITC); type: binding; settings: 700 μM METTL16 (1-291) titrated into 50 μM compound, 25 °C
T1 construct: METTL16 MTD (1–291) was subcloned to pOPINB plasmid; His tag followed by HRV 3C cleavage site (N, cleaved yes); made in house; host or cells: E. coli Rosetta (DE3)
T1 sequence (Q86W50 1-291): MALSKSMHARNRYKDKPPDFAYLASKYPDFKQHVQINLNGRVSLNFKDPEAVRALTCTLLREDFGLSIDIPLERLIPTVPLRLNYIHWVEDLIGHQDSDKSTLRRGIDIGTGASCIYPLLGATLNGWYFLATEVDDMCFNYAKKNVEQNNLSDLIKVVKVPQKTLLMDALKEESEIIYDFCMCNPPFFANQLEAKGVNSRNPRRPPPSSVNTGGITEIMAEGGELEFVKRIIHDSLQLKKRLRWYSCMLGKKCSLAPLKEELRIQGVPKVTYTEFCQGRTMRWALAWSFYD
Procedure: ITC was performed by using the MicroCal PEAQ-ITC system (Malvern) at 25 °C. METTL16 MTD protein was directly used after purification. 700 μM protein in SEC buffer (20 mM pH 7.5, 200 mM NaCl, 0.5 mM TCEP,2% v/v glycerol) supplemented with 0.5% DMSO were loaded to the syringe, 50 μM compound in SEC buffer (final 0.5%DMSO) was loaded to the cell, both samples were adjusted to 25 °C and degassed before loading. The experiment was carried out using the reference power of 10, with 19 injections. Data were analyzed using the MicroCal PEAQ-ITC Analysis Software.
Figure S5. Compound Ia as a negative control for DSF assay ,T m values of tested compounds and ITC result of […]
47. […] Data are shown as mean ± SEM, n=4. (B) EMSA assay result of compound Ia. (C) Melting curve of METTL16 in the DSF assay treated with different concentrations of Ia. Data are shown as mean ± SD, n=2. (D) T m values of DMSO control and compound Ia, 27,45,46, and 47, assay was conducted with two biological repeats in duplicate. Data are shown as mean ± SEM, n=4. (E) ITC validation of compound 47, using 700 μM METTL16 (1-291) protein to titrate 50 μM compound 47.
(1 picture or pasted object on this page, not shown here)

In the case of `CN1C(=O)C(=C2SC(NS(=O)(=O)c3ccc(C(=O)O)cc3)=NC2=O)c2cc(Br)ccc21` [Compound 45], the “MAT2A splicing, in words” value [1] is reported as “promoted MAT2A splicing”.

Work on `O=C1N=C(NS(=O)(=O)c2ccc(C(=O)O)cc2)SC1=C1C(=O)Nc2ccc(Br)cc21` [Compound 47] yielded a Kd [2] of 5.12 µM.
